What all share (test): inhibition of tumour cell growth, NCI panel, 48 h
Assay [1] has as its system Hs-578T.
For assay [2], the system named is EKVX.
The subject of assay [3] is MCF7.
For assay [4], the system named is HT-29.
Assay [5] has as its system Malme-3M.
Assay [6] has as its system HOP-62.
Assay [7] deals with K562.
Assay [8] has as its system SNB-75.
The test system of assay [9] is TK-10.
The test system of assay [10] is 786-0.
Assay [11] deals with SR.
For assay [12], the system named is HCT-15.
The subject of assay [13] is NCI/ADR-RES.
Assay [14] deals with HCT-116.
The test system of assay [15] is IGROV-1.
Assay [16] concerns PC-3.
Assay [17] has as its system UACC-62.
Assay [18] concerns CCRF-CEM.
The test system of assay [19] is CAKI-1.
The test system of assay [20] is UO-31.

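Exposure lasted 48 hours, with cells grown in 96-well plates and compounds tested at five concentrations. GI50: concentration for 50% inhibition of growth.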 Activity calls are given as the source filed them. No stated cut-off is given here; in the data, active = GI50 up to about 1.1 µM and inactive = higher.

Take `O=[N+]([O-])c1ccc2c(c1)nc1n2C(c2c(F)cccc2F)SC1` (centres undefined): the GI50 in assay [1], in assay [2], in assay [3], in assay [4], in assay [5] and in [6] was > 100 µM (inactive) each time. Moreover, the GI50 in assay [7] is > 100 µM (inactive); in assay [8], 84.7 µM (inactive); in assay [9], > 100 µM (inactive); in assay [10] it was > 91.6 µM (inactive); in assay [11] it was > 100 µM (inactive); in [12], above 100 µM. For the same molecule, the GI50 in [13], in assay [14], in assay [15], in assay [16], in [17] and in [18] was > 100 µM (inactive) throughout.

Consider `COc1ccc2c(c1)[C@@]13CCCC[C@H]1[C@@H](C2)N(C)CC3=O`, for which the GI50 is 19.2 µM (inactive) in [1]; 18.5 µM (inactive) in assay [2]; 18.3 µM (inactive) in [3]; 21.5 µM (inactive) in assay [4]; 18.5 µM (inactive) in [5]; 28.3 µM (inactive) in [19]. Besides, the GI50 is > 100 µM (inactive) in [6]; 28 µM (inactive) in assay [7]; 19 µM (inactive) in assay [9]; 17.9 µM (inactive) in [10]; 18.7 µM (inactive) in [20]; 12.4 µM (inactive) in assay [11]. For the same molecule, the GI50 in [12] was 17.8 µM; in [13], 26.9 µM (inactive); in assay [14], 16.2 µM (inactive); in assay [15], 17.4 µM (inactive); in assay [16] it was 14.8 µM (inactive); in assay [17], 16.9 µM (inactive). In addition, the GI50 in assay [18] is 19.2 µM (inactive).

For the molecule `CC(=O)OCC1OC(n2cnc(C(N)=S)c2N)C(OC(C)=O)C1OC(C)=O` (centres undefined), the GI50 in assay [1], in [3], in assay [4], in assay [5], in [19] and in [6] was > 100 µM (inactive) each time. The GI50 is > 100 µM (inactive) in assay [8]; > 100 µM (inactive) in assay [9]; > 100 µM (inactive) in assay [10]; > 100 µM (inactive) in assay [20]; > 100 µM (inactive) in assay [11]; above 100 µM in [12]. Further, the GI50 in assay [13], in [14], in [15], in [16], in assay [17] and in assay [18] was > 100 µM (inactive) in each case.

As for `CCCC(=O)OCC1OC(n2cc(F)c(=O)[nH]c2=O)CC1OC(=O)CCC` (centres undefined), the GI50 is 2.32 µM (inactive) in assay [1]; > 10 µM (inactive) in assay [2]; 0.0169 µM (active) in assay [3]; > 6.43 µM (inactive) in [5]; 0.183 µM (active) in [19]; 0.0684 µM (active) in assay [6]. For the same molecule, the GI50 was 1.16 µM (inactive) in [7]; 2.25 µM (inactive) in [9]; 0.434 µM (active) in [10]; 0.13 µM (active) in assay [20]; 0.034 µM (active) in assay [11]; above 4.41 µM in assay [12]. The GI50 was 1.55 µM (inactive) in assay [13]; 0.524 µM (active) in assay [14]; > 10 µM (inactive) in [15]; 1.55 µM (inactive) in assay [16]; 0.177 µM (active) in assay [17]; 0.0295 µM (active) in [18].

Take `O=C1Nc2cc([N+](=O)[O-])ccc2N/C1=C/C(=O)c1ccc(Cl)cc1`: the GI50 is 11.5 µM (inactive) in [1]; 15.7 µM (inactive) in assay [2]; 11.2 µM (inactive) in assay [3]; 15.3 µM (inactive) in assay [4]; 26.3 µM (inactive) in [5]; 17.6 µM (inactive) in assay [19]. In addition, the GI50 in assay [7] is 3.64 µM (inactive); in [8] it was 20.1 µM (inactive); in assay [9] it was 3.9 µM (inactive); in [10], 3.13 µM (inactive); in assay [20] it was 25.1 µM (inactive); in assay [11], 12.2 µM (inactive). Also, the GI50 was 12.6 µM in assay [12]; 7.71 µM (inactive) in assay [13]; 3.24 µM (inactive) in assay [14]; 12.3 µM (inactive) in assay [15]; 16.6 µM (inactive) in [16]; 14.9 µM (inactive) in assay [17]. For the same molecule, the GI50 in assay [18] is 10.5 µM (inactive).

As for `COc1ccc(CCNC(=S)NC=C2C(=O)c3ccccc3C2=O)cc1OC`, the GI50 in assay [1] was 14.8 µM (inactive); in assay [2] it was > 100 µM (inactive); in [3], 89.9 µM (inactive); in assay [4], > 100 µM (inactive); in assay [5] it was > 100 µM (inactive); in assay [19], > 100 µM (inactive). In addition, the GI50 in assay [6] was > 100 µM (inactive); in [7], > 100 µM (inactive); in assay [8], 19.8 µM (inactive); in [10], > 100 µM (inactive); in assay [20], 27.7 µM (inactive); in [11], 82 µM (inactive). Moreover, the GI50 is above 100 µM in assay [12]; > 100 µM (inactive) in [13]; > 100 µM (inactive) in [14]; > 100 µM (inactive) in assay [15]; > 100 µM (inactive) in assay [16]; > 100 µM (inactive) in assay [17]. Also, the GI50 in assay [18] was > 100 µM (inactive).

As for `CC(C)(CC(O)C#N)/[N+]([O-])=[N+](\[O-])C(C)(C)CC(O)C#N` (centres undefined), the GI50 in assay [1] is 12.2 µM (inactive); in [2], 32.6 µM (inactive); in [3], 20.7 µM (inactive); in [4], 28.4 µM (inactive); in assay [5], 21.6 µM (inactive); in assay [19], 10.9 µM (inactive). For the same molecule, the GI50 was 19.4 µM (inactive) in [6]; 14.4 µM (inactive) in assay [7]; 23.7 µM (inactive) in [8]; 26.7 µM (inactive) in [9]; 18.2 µM (inactive) in assay [10]; 26.9 µM (inactive) in [20]. Besides, the GI50 is 15.2 µM (inactive) in assay [11]; 15.2 µM in assay [12]; 38.2 µM (inactive) in [13]; 15.2 µM (inactive) in assay [14]; 21.2 µM (inactive) in assay [15]; 28.2 µM (inactive) in [16]. Also, the GI50 in assay [17] is 16 µM (inactive).

Consider `CCN(CC)c1ccc(/C=c2\nc(-c3ccccc3)n3c2nc2ccccc23)cc1`, for which the GI50 is 24.4 µM (inactive) in assay [1]; 1.67 µM (inactive) in [2]; 14.6 µM (inactive) in [3]; 1.89 µM (inactive) in assay [4]; 13 µM (inactive) in [5]; 0.885 µM (active) in assay [19]. Moreover, the GI50 in assay [6] is 7.19 µM (inactive); in assay [7], 3.77 µM (inactive); in assay [9], 17 µM (inactive); in assay [10], 4.27 µM (inactive); in assay [20] it was 13.5 µM (inactive); in assay [11] it was 1.68 µM (inactive). In addition, the GI50 was 1.23 µM in assay [12]; 3.98 µM (inactive) in assay [13]; 3.64 µM (inactive) in assay [14]; 7.82 µM (inactive) in assay [15]; 1.93 µM (inactive) in assay [16]; 10.5 µM (inactive) in assay [17]. The GI50 in assay [18] was 0.544 µM (active).

For `O=C(Cc1ccc([N+](=O)[O-])cc1)OCC#CCOC(=O)Cc1ccc([N+](=O)[O-])cc1`, the GI50 in [1], in assay [2], in assay [3], in [4], in [5] and in [7] was > 10 µM (inactive) in each case. In addition, the GI50 in [8] was > 10 µM (inactive); in [9] it was > 10 µM (inactive); in assay [10], > 10 µM (inactive); in assay [20], > 10 µM (inactive); in assay [11] it was > 10 µM (inactive); in [12] it was above 10 µM. The GI50 in assay [13], in [15], in assay [16], in assay [17] and in assay [18] was > 10 µM (inactive) in each case.

As to `c1csc(-c2cc(-c3ccsc3)cs2)c1`, the GI50 is 21 µM (inactive) in assay [1]; 52.7 µM (inactive) in assay [2]; 34.8 µM (inactive) in assay [3]; 41.4 µM (inactive) in assay [4]; > 100 µM (inactive) in [19]; 29.9 µM (inactive) in assay [6]. Besides, the GI50 in [7] was > 100 µM (inactive); in [8], > 100 µM (inactive); in assay [9], > 100 µM (inactive); in [10] it was 44.2 µM (inactive); in [20] it was 78.2 µM (inactive); in [11] it was 14.4 µM (inactive). For the same molecule, the GI50 in [12] was above 100 µM; in [13], > 100 µM (inactive); in [14], > 100 µM (inactive); in assay [15] it was 45.2 µM (inactive); in assay [16], > 100 µM (inactive); in assay [17] it was > 100 µM (inactive). Also, the GI50 in [18] is > 100 µM (inactive).

Regarding `COC(C)(C)/C=C/c1[nH]c2ccccc2c1CC(=O)NCCc1cn(C(c2ccccc2)(c2ccccc2)c2ccccc2)cn1`, the GI50 was 7.1 µM (inactive) in assay [1]; 3.44 µM (inactive) in assay [2]; 3.66 µM (inactive) in assay [3]; 2.71 µM (inactive) in [4]; 3.76 µM (inactive) in assay [5]; 15.9 µM (inactive) in assay [19]. The GI50 in assay [6] is 5.92 µM (inactive); in assay [7], 3.17 µM (inactive); in assay [9], 5.46 µM (inactive); in assay [10], 4.72 µM (inactive); in assay [20] it was 5.77 µM (inactive); in assay [11], 2.23 µM (inactive). The GI50 in assay [12] is 4.25 µM; in assay [13] it was 5.12 µM (inactive); in assay [14], 4.12 µM (inactive); in assay [15] it was 5.4 µM (inactive); in [16], 3.44 µM (inactive); in [17] it was 6.44 µM (inactive). For the same molecule, the GI50 in assay [18] was 3.68 µM (inactive).

Source of the values: ChEMBL document CHEMBL1201862, “PubChem BioAssay data set” (2004).
